The text below walks through data of paper PMC5100903, “Tissue Kallikrein Inhibitors Based on the Sunflower Trypsin Inhibitor Scaffold – A Potential Therapeutic Intervention for Skin Diseases” (PLoS ONE, 2016).

The structures appear in SMILES notation. Entries after “also recorded” stand apart in the source; their conditions may differ. Positions of bridges follow the written chain, without caps; N, C: chain ends. Residues, ends and D or L forms follow the SMILES beside them.

One data set concerns N-tert skin cells. Briefly: KLK5-induced IL-8 secretion, ELISA. The settings on record: KLK5 300 nM, Analogue 6 1515 nM (molar excess 5:1), N-tert cells, 6, 24 and 48 hours. The format is cell-based, human.
The test system of data set [1] is in vitro skin equivalent cultures (primary human keratinocytes and fibroblasts). In words: Organotypic skin culture, in-situ zymography with casein substrate. The format is cell-based. The settings on record: 10 μM in PBS, topical, once every day for two days. As for the experimental part:
Primary keratinocytes and fibroblasts were isolated from skin biopsies from healthy donors and incubated with 0.25% trypsin/EDTA 3 hours for keratinocytes and Serva 50U/ml collagenase NB6 (Universal Biologicals, Cambridge, UK) 2 hours for fibroblasts. Isolated primary keratinocytes were then co-cultured with lethally irradiated 3T3 mouse fibroblasts and grown in keratinocyte culture media. Primary keratinocytes and fibroblasts from normal donors’ skin biopsies were cultivated in vitro on de-epidermalized dermal matrix as described. Briefly, dermal fibroblasts derived from skin biopsies were seeded onto the reticular side of the de-epidermalized dermal matrix and keratinocytes were seeded on the papillary side. After keratinocytes reached confluence, the culture was lifted at the air-liquid interface for 14 days. The OTCs were then topically treated with Analogue 6 (10 μL, 10 μM) or 1xPBS for the untreated control in two doses each separated by 24hrs. Following treatment, the cultures were harvest and embedded in O.C.T.™ (Sakura Finetek, Netherlands) for cryosections. The cryosections (7 μm thick) of the treated and untreated tissues were washed with 1xPBS. […] Sections were examined under a Leica DM LB fluorescence microscope and the images processed using ImageJ (v1.46).

The target of data set [2] is T1, KLK5 (Homo sapiens, UniProt Q9Y337).
T1 construct: purchased Novoprotein
T1 sequence (Q9Y337 23-293): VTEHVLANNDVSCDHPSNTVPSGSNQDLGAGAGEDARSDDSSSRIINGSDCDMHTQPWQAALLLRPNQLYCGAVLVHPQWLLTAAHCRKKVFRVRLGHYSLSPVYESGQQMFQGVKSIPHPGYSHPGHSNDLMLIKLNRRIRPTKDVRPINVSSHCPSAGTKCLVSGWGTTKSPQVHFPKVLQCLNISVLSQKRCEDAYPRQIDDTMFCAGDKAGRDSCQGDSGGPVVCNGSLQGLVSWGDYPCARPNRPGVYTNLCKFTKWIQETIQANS
Briefly: KLK5 inhibition, fluorogenic Boc-VPR-AMC assay (S1 Table conditions). The format is biochemical. The settings on record: KLK5 10 nM, Boc-VPR-AMC 41.6 μM, 1xPBS pH 8.0, 15 min on ice preincubation, read at 15 min, 25°C. As to the method: All assays were performed on 96-well microplates and the change in relative fluorescence unit (RFU) was measured by fluorescence spectrometer (BMG FLUOstar OPTIMA). […] Stock solution of Boc-VPR-AMC was prepared by dissolving the solid in dimethyl sulfoxide to 100 mM and 10 mM for MeOSuc-AAPV. For BODIPY_FL casein, it was reconstituted to 1 mg/mL in 1xPBS. […] The % of inhibition was calculated by the following equation: % of Inhibition=(1−(Sample RFU − Min RFU)/(Max RFU − Min RFU)) X100
(§1) Each inhibition curves were done in triplicates with a minimum of five concentration points fitted. Fitting of each curve was done using SigmaPlot with the Four Parameter Logistic Function and the IC50 calculated. […] All tested compounds were reconstituted to stock solution in water.
The diluent for all the tested compounds, protein and substrate was 1xPBS pH 8.0. Zinc sulfate and p-aminobenzamidine were purchased from Sigma (Dorset, U.K.). […] The ligand-protein mixtures were incubated on ice for 15 minutes and 20 μL was transferred to a well of a 96-well microplate (ThermoScientific, Waltham, U.S.) in triplicate. […] Change in RFU was measured 15 minutes after substrate addition at 25°C.

Data set [3] addresses T1, KLK5. In words: biochemical. As for the experimental part:
All assays were performed on 96-well microplates and the change in relative fluorescence unit (RFU) was measured by fluorescence spectrometer (BMG FLUOstar OPTIMA). The excitation/emission wavelength was 360/460 nm for the substrate Boc-VPR-AMC (Bachem AG, Hauptstrasse, Switzerland) and MeOSuc-AAPV-AMC (Bachem AG, Hauptstrasse, Switzerland) and 485/520 nm for BODIPY_FL casein (Invitrogen, Carlsbad, US). Stock solution of Boc-VPR-AMC was prepared by dissolving the solid in dimethyl sulfoxide to 100 mM and 10 mM for MeOSuc-AAPV. For BODIPY_FL casein, it was reconstituted to 1 mg/mL in 1xPBS. […] The % of inhibition was calculated by the following equation: % of Inhibition=(1−(Sample RFU − Min RFU)/(Max RFU − Min RFU)) X100
as §1
The diluent for all the tested compounds, protein and substrate was 1xPBS. Serially diluted ligands were mixed with diluted recombinant KLK5 (10 nM f/c). The ligand-protein mixtures were incubated on ice for one hour and 19.5 μL was pipetted into a well of a 96-well microplate in triplicates. To start the reaction, 100 μL of the diluted (41.6 μM f/c) Boc-VPR-AMC substrate solution (contained 0.05% v/v Brij35) was added. The plate was incubated at 37°C and the RFU reading was taken 15 minutes after.
There are two previously reported Km values for KLK5 and its substrate Boc-VPR-AMC which allowed the IC50 to Ki conversion. Ki values were calculated according to the Cheng-Prusoff equation Ki= IC50/1+[S]/Km for single site competitive binding.

For `CC[C@H](C)[C@@H]1NC(=O)[C@H](CO)NC(=O)[C@H](CCCNC(=N)N)NC(=O)[C@H]([C@@H](C)O)NC(=O)[C@@H]2CSSC[C@H](NC(=O)[C@H](Cc3c[nH]cn3)NC(=O)[C@@H]3CCCN3C(=O)[C@@H]3CCCN3C1=O)C(=O)N[C@@H](Cc1c[nH]c3ccccc13)C(=O)N1CCC[C@H]1C(=O)N[C@@H](CC(=O)O)C(=O)NCC(=O)N[C@@H](CCCNC(=N)N)C(=O)N2` [Analogue 6] (cyclo(CTRSIPPHCWPDGR); disulfide 1-9), the “suppression of KLK5-induced IL-8 increase” value with N-tert skin cells is “suppress IL-8 increase up to 6 hours (p<0.05) but not 24 hours after stimulation; also recorded: delay the KLK5-induced IL-8 release by up to 6 hours but not for 24 hours”. Moreover, in data set [1], the “penetration of the cornified layer of in vitro grown skin” value is on record as “penetrated the cornified layer” and the “skin protease activity in epidermis (in-situ zymography)” value is on record as “weaker in the epidermis of the treated skin compared to untreated skin”.
The term IC50 denotes the point on the concentration scale where inhibition reaches its midpoint. The low end stands for inhibition by little substance, the high end for a need for much substance. Broadly, the Ki is a dissociation constant, usually derived from enzyme kinetics or from competition with a known ligand. Turning to `CC[C@H](C)[C@@H]1NC(=O)[C@H](CO)NC(=O)[C@H](CCCCN)NC(=O)[C@H]([C@@H](C)O)NC(=O)[C@@H]2CSSC[C@H](NC(=O)[C@H](Cc3c[nH]cn3)NC(=O)[C@@H]3CCCN3C(=O)[C@@H]3CCCN3C1=O)C(=O)N[C@@H](Cc1ccccc1)C(=O)N1CCC[C@H]1C(=O)N[C@@H](CC(=O)O)C(=O)NCC(=O)N[C@@H](CCCNC(=N)N)C(=O)N2` [Analogue I10H] (cyclo(CFPDGRCTKSIPPH); disulfide 1-7), the IC50 at KLK5 [2] came out at 760 nM; against KLK5 [3] (KLK5 10 nM, Boc-VPR-AMC 41.6 μM, 1xPBS, one hour on ice preincubation, read at 15 min, 37°C) it was 352 ± 144 nM. Further, the Ki on KLK5 [3] (calculated from Table 2 IC50 by Cheng-Prusoff equation, read-out: Inhibitory Constant (Ki)) was 322 nM.
For `CC[C@H](C)[C@@H]1NC(=O)[C@@H]2CCCN2C(=O)[C@@H]2CCCN2C(=O)[C@H]([C@@H](C)CC)NC(=O)[C@H](CO)NC(=O)[C@H](CCCCN)NC(=O)[C@H]([C@@H](C)O)NC(=O)[C@@H]2CSSC[C@H](NC1=O)C(=O)N[C@@H](Cc1ccccc1)C(=O)N1CCC[C@H]1C(=O)N[C@@H](CC(=O)O)C(=O)NCC(=O)N[C@@H](CCCNC(=N)N)C(=O)N2` [Native SFTI, Sunflower Trypsin Inhibitor 1, reference compound], the IC50 against KLK5 [2] was 300 nM.
